Columns and labels:
PCSK9 [1] = molecular target: T1, PCSK9 (Homo sapiens, UniProt Q8NBP7, G670E/V474I); test: biochemical
[2] = molecular target: GSK3β (Glycogen synthase kinase-3 beta) (Homo sapiens, UniProt P49841); test: Assay 6 GSK3β assay (ThermoFisher Z-Lyte FRET); type: biochemical; settings: ATP Conc: 10 μM, geometric mean; read-out: Assay 6 (GSK3β FRET-Z-Lyte Cr) GMean IC50
Method in brief: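 Z-Lyte FRET: 0.22-0.92 ng kinase with 2 μM Ser/Thr 09 peptide in HEPES pH 7.5, MgCl2, EGTA, 60 min at room temperature, then 60 min development. Compounds in 1% DMSO, 10-point 3-fold series from 10 μM; sigmoidal dose-response fit.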

PCSK9 [3] = molecular target: T2, PCSK9 (Homo sapiens, UniProt Q8NBP7); test: Assay 2 Biophysical human PCSK9 assay (SPR, Biacore); type: binding; set-up: biotinylated human PCSK9 (31-692)-Avi-His6; His6 (C); settings: single-cycle kinetics, 30° C., geometric mean, read-out: Assay 2 (PCSK9 BIAcore DBA Cr) GMean Kd
Method: The SPR binding experiments were performed on a Biacore S200 optical biosensor unit at 30° C. A Series S Sensor Chip SA that is designed to bind biotinylated molecules for interaction analysis in Biacore systems was equilibrated at room temperature prior to use. The running buffer for protein tethering and subsequent ligand binding experiments was 10 mM HEPES pH 7.4, 150 mM NaCl, 0.05% (v/v) Tween 20 pH 7.4.
For the surface tethering of PCSK9, biotinylated human PCSK9 (31-692)-Avi-His6 at a concentration of 0.5 mg/mL was used. Prior to the surface tethering, the surface was exposed to a solution of 50 mM NaOH, 500 mM NaCl via 3 consecutive injections of this solution with a contact time of 60 s and a flowrate of 10 μL min^−1 to remove non-conjugated streptavidin. The PCSK9 protein was diluted to a concentration of 20 μg/mL using running buffer and injected with a contact time of 180-300 s and a flowrate of 10 μL min^−1 over a single flow channel (typically flow channel 2 or flow channel 4) with the aim to achieve protein capture levels of >5000 response units (RU). Remaining biotin binding sites were blocked via 2 consecutive injections of a 10 μM D-biotin solution in running buffer with a contact time of 60 s and a flowrate of 10 μL min^−1 over all flow-channels. Flow-channels 1 and 3 typically served as a reference surface throughout the subsequent binding experiments.
The binding experiments were all performed at a flow rate of 30 PL min^−1 and by employing the method of single-cycle kinetics. This approach involves the sequential injection of a compound concentration series without regeneration steps. A contact time between 90-150 s was selected, which was followed by a 40 min dissociation phase to allow for a proper estimation of the dissociation rate constant. Test compounds were delivered in DMSO at a concentration of 10 mM and a digital dispenser HP D300 was used to set up the compound concentration series using 6 concentrations. The tested concentrations have been 30, 100, 300, 1000, 3000 and 10000 nM. Prior to injecting any compound, the surfaces were equilibrated by injecting running buffer over them in three separate pulses. The data collection rate was set to 10 Hz.
The raw sensorgrams of the compound injections were first subjected to reference subtraction (subtracting the signal from flow channel 1 and/or 3 from the signal from channels 2 and/or 4 respectively) and then blank subtraction (subtracting the signal from injecting DMSO controls from the reference subtracted data). The resulting double-referenced sensorgrams were then fitted using a 1:1 binding interaction model using the manufactures software package to extract kinetic- and affinity data. Active compounds have been defined by creating a detectable binding signal at the highest compound concentration ([…]) of 3 RUs. Kinetic- and affinity data on active compounds are only provided for those compounds where the binding signal at the highest compound concentration ([…]) is 50% of the theoretical maximum binding signal for a 1:1 binding interaction (Rmax, typically between 15-20 RUs) in order to enable a proper fitting of the data.
Target sequence in this assay (Q8NBP7 31-692): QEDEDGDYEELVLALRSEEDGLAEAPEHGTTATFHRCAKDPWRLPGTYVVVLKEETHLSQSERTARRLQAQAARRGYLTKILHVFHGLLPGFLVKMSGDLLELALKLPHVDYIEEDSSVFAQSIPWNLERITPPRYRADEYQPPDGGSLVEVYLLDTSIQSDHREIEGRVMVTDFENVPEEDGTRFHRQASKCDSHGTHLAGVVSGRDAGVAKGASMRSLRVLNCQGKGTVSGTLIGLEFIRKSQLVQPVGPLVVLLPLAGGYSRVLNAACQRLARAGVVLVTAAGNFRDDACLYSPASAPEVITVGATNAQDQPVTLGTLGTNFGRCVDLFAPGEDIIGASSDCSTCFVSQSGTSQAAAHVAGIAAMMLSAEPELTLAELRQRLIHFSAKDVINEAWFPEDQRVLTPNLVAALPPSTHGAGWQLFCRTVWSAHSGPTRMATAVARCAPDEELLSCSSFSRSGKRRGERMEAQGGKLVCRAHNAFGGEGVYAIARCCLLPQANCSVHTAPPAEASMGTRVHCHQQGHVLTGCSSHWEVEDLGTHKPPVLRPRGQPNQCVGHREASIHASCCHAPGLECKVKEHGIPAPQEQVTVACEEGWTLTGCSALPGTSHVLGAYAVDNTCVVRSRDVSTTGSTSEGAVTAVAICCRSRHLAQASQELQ

[4] = molecular target: T3, potassium ion channel hERG (Homo sapiens, UniProt Q12809); test: Assay 5 hERG assay (patch clamp, CHO cells over-expressing hERG); type: cell-based; settings: SyncroPatch 384PE, room temperature, geometric mean, read-out: Assay 5 (hERG Hu CHO if EPh CR-Syncro) GMean IC50
T3 construct: expressed in transfected cells; host or cells: Chinese hamster ovary K1 (CHO)
T3 sequence (Q12809 whole entry): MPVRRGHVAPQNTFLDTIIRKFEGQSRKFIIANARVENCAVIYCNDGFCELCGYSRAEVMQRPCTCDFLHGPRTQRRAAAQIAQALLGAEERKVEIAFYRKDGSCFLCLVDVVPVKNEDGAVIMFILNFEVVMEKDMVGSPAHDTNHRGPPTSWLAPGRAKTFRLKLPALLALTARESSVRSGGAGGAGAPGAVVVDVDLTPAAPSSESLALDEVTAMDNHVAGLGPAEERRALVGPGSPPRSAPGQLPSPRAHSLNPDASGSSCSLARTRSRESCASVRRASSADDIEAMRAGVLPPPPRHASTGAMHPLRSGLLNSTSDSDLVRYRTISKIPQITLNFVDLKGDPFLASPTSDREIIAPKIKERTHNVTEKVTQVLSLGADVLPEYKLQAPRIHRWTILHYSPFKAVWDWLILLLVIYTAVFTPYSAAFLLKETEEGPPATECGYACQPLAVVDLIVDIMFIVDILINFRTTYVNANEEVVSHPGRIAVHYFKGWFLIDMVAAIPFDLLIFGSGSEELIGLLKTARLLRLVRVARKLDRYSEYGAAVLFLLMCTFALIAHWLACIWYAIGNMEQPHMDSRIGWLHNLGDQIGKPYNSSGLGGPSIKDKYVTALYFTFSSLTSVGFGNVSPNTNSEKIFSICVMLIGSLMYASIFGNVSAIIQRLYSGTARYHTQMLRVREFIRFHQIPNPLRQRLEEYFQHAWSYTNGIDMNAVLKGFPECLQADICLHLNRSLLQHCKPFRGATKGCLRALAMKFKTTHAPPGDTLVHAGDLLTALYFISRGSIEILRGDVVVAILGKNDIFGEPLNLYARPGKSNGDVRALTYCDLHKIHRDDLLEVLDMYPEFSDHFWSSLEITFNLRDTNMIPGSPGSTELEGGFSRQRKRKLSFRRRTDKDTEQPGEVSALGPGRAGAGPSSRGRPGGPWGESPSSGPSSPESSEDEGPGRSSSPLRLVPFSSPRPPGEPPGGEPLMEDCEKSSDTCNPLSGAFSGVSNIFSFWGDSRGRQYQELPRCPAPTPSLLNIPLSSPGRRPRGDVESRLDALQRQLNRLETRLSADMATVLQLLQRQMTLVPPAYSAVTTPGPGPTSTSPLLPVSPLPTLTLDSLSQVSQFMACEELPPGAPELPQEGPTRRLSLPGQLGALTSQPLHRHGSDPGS
Method in brief: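 hERG currents recorded by automated patch clamp at room temperature in CHO-K1 cells, 6-point cumulative concentrations. SyncroPatch runs used KF-based internal (pH 7.2) and NMDG-containing external solution (pH 7.4), 0.33% DMSO; QPatchII runs used 2% or 0.4% DMSO. Only wells meeting seal-resistance and current-size criteria kept.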

PCSK9 [5] = molecular target: T1, PCSK9; test: Assay 3 PCSK9 LDL-C uptake assay in HepG2 cells; type: cell-based; set-up: TEV site (C); His6 (C); host or cells: added to HepG2 (ATCC #HB-8065); settings: 125 nM PCSK9, pHrodo Red-LDL, read-out: Assay 3 LDL uptake potency
Excerpt: This assay measures for PCSK9 antagonist activity based on a test compound's capacity to restore LDL-C-uptake in HepG2 cells. The assay is based on exogenous PCSK9 and LDL-C complexed with a pH-sensitive dye. Outside the cells, at neutral pH, the pHrodo Red-LDL is dimly fluorescent but upon LDLR mediated endocytosis it fluoresces brightly. PCSK9 traffics the LDLR to intracellular degradation and reduces uptake of LDL-C. Inhibition of PCSK9 reduces LDLR degradation and the increased LDL-C uptake is quantified by fluorescence microscopy.
• Cell medium: MEM supplemented with 10% FBS, 1×NEAA and Sodium Pyruvate • Assay medium: OptiMem supplemented with penicillin/streptomycin • Cells: HepG2 (ATCC #HB-8065)
• 1. Cryopreserved HepG2 cells were thawed in assay medium and centrifuged for 5 min at 250 g. Supernatant was discarded and the cell pellet resuspended in cell medium and counted with a Nucleocounter. Cells were again centrifuged 5 min at 250 g and the pellet was resuspended to 500000 cells/mL in assay medium. • 2. 20 μL of above cell mix was dispensed into black μclear TC treated 384 well plates with Multidrop Combi and left at room temperature for 20 minutes. • 3. Plates were incubated at 37° C., 5% CO2 for 24 h
• 1. Test compounds were prepared in concentration response in DMSO with a half-log dilution factor in DMSO in Echo 384 LDV plates starting at 10 mM. • 2. 30 nL of above test compounds were dispensed with Echo 655 to cells for a top concentration of 10 μM • 3. 10 μL PCSK9 in assay medium was dispensed to cells with Multidrop Combi for 125 nM final concentration in the wells. • 4. Plates were incubated at 37° C., 5% CO2 for 24 h
• 1. 10 μL pHrodo Red-LDL in assay medium was dispensed to cells with Multidrop Combi for […] • 2. Plates were incubated at 37° C., 5% CO2 and imaged with the Incucyte S3 after 4 h and 24 h
Image data was processed using Incucyte 2021, a software to identify cells and red fluorescent intensity. Screener was used to further process data. Data was normalized as % effect of the signal between median values of the on-plate controls of DMSO and 100 nM Evolocumab according to the formula % effect=−100*(x−DMSO)/(Evolocumab−DMSO) where x equals the measured signal. Concentration response data of the normalized values were fitted using a four-parameter logistic fit.

PCSK9 [6] = molecular target: T2, PCSK9; set-up: host or cells: patients; settings: clinical trials, patients; alirocumab compared to placebo; cited from earlier work
Target sequence in this assay (Q8NBP7 153-692): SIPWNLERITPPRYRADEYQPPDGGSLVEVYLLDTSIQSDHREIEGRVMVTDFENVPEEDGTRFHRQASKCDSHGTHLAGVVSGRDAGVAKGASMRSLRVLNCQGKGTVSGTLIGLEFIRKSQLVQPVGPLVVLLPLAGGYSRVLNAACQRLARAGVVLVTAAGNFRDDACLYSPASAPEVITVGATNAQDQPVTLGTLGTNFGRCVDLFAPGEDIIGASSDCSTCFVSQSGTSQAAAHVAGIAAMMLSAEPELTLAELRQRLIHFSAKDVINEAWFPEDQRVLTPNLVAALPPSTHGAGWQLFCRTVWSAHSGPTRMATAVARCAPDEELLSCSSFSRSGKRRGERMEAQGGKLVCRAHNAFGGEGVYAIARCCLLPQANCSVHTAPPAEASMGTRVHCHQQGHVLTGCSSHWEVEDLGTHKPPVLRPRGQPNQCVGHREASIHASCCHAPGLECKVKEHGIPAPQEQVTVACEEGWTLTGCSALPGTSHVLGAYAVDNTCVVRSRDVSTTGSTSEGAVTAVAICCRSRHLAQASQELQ

Sequence of GSK3β (Glycogen synthase kinase-3 beta) (P49841 whole entry): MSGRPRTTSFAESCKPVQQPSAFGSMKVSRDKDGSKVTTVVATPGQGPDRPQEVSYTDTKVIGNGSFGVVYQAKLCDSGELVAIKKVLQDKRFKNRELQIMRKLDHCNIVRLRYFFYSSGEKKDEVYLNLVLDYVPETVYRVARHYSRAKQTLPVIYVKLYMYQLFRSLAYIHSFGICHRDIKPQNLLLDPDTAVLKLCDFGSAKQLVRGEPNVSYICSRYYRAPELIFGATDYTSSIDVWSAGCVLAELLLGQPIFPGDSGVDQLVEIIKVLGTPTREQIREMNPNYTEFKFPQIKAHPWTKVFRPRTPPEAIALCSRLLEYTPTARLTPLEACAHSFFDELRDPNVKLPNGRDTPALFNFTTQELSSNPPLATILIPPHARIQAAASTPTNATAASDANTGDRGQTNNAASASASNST
T1 sequence (Q8NBP7 with tags, fused parts or gaps V474I/G670E): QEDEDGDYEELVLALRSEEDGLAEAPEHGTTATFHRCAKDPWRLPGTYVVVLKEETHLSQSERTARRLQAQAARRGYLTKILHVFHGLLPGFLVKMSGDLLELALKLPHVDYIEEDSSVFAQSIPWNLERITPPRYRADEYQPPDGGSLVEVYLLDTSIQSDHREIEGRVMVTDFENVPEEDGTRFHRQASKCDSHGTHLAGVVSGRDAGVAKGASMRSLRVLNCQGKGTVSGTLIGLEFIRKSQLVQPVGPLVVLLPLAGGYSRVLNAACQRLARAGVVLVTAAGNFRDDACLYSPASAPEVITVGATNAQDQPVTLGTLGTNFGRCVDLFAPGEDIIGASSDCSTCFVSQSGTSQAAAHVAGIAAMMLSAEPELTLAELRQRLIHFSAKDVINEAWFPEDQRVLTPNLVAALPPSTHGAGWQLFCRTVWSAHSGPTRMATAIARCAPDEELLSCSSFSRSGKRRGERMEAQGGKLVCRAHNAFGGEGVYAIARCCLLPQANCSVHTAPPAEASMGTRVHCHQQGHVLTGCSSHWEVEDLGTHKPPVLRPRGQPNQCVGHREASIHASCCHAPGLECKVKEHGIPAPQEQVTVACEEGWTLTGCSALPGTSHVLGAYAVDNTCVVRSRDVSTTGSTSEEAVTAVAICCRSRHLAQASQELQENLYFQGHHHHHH

| Compound | IC50 (PCSK9 [1]) [µM] | IC50 [2] [µM] | Kd (PCSK9 [3]) [µM] | IC50 [4] [µM] | EC50 (PCSK9 [5]) [µM] | decrease in LDL levels (PCSK9 [6]) |
| --- | --- | --- | --- | --- | --- | --- |
| O=C(NCC(F)F)c1cnc(N[C@H]2CC[C@H](Nc3ccc(-n4ccccc4=O)cn3)C2)nn1 [Example 71, N-(2,2-Difluoroethyl)-3-(((1S,3S)-3-((2-oxo-2H-[1,3′-bipyridin]-6′-yl)amino)cyclopentyl)amino)-1,2,4-triazine-6-carboxamide] | 0.046 | > 10 | 0.063 | > 40 |  |  |
| O=C(NCCO)c1cnc(N[C@H]2CC[C@H](Nc3ccc(-n4ccccc4=O)cn3)C2)nn1 [Example 72, N-(2-Hydroxyethyl)-3-(((1S,3S)-3-((2-oxo-2H-[1,3′-bipyridin]-6′-yl)amino)cyclopentyl)amino)-1,2,4-triazine-6-carboxamide] | 0.205 | > 10 | 0.17 | > 40 |  |  |
| CCNC(=O)c1cnc(N[C@H]2CC[C@H](Nc3ccc(-n4ccccc4=O)cn3)C2)nn1 [Example 73, N-Ethyl-3-(((1S,3S)-3-((2-oxo-2H-[1,3′-bipyridin]-6′-yl)amino)cyclopentyl)amino)-1,2,4-triazine-6-carboxamide] | 0.075 | > 10 | 0.048 | > 40 |  |  |
| NC(=O)c1cnc(N[C@H]2CC[C@H](Nc3ccc(-n4ccccc4=O)cn3)C2)nn1 [Example 74, 3-(((1S,3S)-3-((2-Oxo-2H-[1,3′-bipyridin]-6′-yl)amino)cyclopentyl)amino)-1,2,4-triazine-6-carboxamide] | 0.085 | 8.3 | 0.08 | > 40 |  |  |
| CN(C)C(=O)c1cnc(N[C@H]2CC[C@H](Nc3ccc(-n4ccccc4=O)cn3)C2)nn1 [Example 76, N,N-Dimethyl-3-(((1S,3S)-3-((2-oxo-2H-[1,3′-bipyridin]-6′-yl)amino)cyclopentyl)amino)-1,2,4-triazine-6-carboxamide] | 0.485 | > 10 | 0.125 | > 40 |  |  |
| Cc1cnnc(N[C@H]2CC[C@H](Nc3ccc(-n4ccccc4=O)cn3)C2)n1 [Example 126, 6′-(((1S,3S)-3-((5-Methyl-1,2,4-triazin-3-yl)amino)cyclopentyl)amino)-2H-[1,3′-bipyridin]-2-one] | 0.744 | > 10 | 0.954 | > 40 |  |  |
| Cc1nnc(N[C@H]2CC[C@H](Nc3ccc(-n4ccccc4=O)cn3)C2)nc1C [Example 127, 6′-(((1S,3S)-3-((5,6-Dimethyl-1,2,4-triazin-3-yl)amino)cyclopentyl)amino)-2H-[1,3′-bipyridin]-2-one] | 0.193 | > 10 | 0.248 | > 40 |  |  |
| COc1ccnn(-c2ccc(N[C@H]3CC[C@H](Nc4ncc(C)nn4)C3)nc2)c1=O [Example 220, 4-Methoxy-2-(6-(((1S,3S)-3-((6-methyl-1,2,4-triazin-3-yl)amino)cyclopentyl)amino)pyridin-3-yl)pyridazin-3(2H)-one] | 0.0017 | > 10 |  | > 200 | 0.2 |  |
| Cc1cnc(N[C@H]2CC[C@H](Nc3ccc(-n4nccc(OC(F)F)c4=O)cn3)C2)nn1 [Example 281, 4-(Difluoromethoxy)-2-(6-(((1S,3S)-3-((6-methyl-1,2,4-triazin-3-yl)amino)cyclopentyl)amino)pyridin-3-yl)pyridazin-3(2H)-one] | 0.0025 | > 10 |  | > 40.1 | 0.3 |  |
| Cc1cnc(N[C@H]2CC[C@H](Nc3ccc(-n4ncc5cccnc54)cn3)C2)nn1 [Example 310, (1S,3S)—N′-(5-(1H-Pyrazolo[3,4-b]pyridin-1-yl)pyridin-2-yl)-N^3-(6-methyl-1,2,4-triazin-3-yl)cyclopentane-1,3-diamine] | 0.022 | > 10 | 0.019 | 35 |  |  |
| Cc1cnc(N[C@H]2CC[C@H](Nc3ccc(-n4ncc5ccccc54)cn3)C2)nn1 [Example 311, (1S,3S)—N′-(5-(1H-Indazol-1-yl)pyridin-2-yl)-N^3-(6-methyl-1,2,4-triazin-3-yl)cyclopentane-1,3-diamine] | 0.0055 | > 10 | 0.0069 | 7.6 |  |  |
| alirocumab |  |  |  |  |  | about 50% |

— patent US20240228469A1, “PCSK9 INHIBITORS AND METHODS OF USE THEREOF” (AstraZeneca AB, priority 2022, published 2024)
